# Patent US20230373934A1, “ANDROGEN RECEPTOR MODULATORS AND METHODS FOR THEIR USE” (ESSA Pharma, Inc., priority 2022, published 2023)
# Molecular target: T1, androgen receptor (AR) (Homo sapiens, UniProt P10275)
# T1 sequence (P10275 1-920 T878A): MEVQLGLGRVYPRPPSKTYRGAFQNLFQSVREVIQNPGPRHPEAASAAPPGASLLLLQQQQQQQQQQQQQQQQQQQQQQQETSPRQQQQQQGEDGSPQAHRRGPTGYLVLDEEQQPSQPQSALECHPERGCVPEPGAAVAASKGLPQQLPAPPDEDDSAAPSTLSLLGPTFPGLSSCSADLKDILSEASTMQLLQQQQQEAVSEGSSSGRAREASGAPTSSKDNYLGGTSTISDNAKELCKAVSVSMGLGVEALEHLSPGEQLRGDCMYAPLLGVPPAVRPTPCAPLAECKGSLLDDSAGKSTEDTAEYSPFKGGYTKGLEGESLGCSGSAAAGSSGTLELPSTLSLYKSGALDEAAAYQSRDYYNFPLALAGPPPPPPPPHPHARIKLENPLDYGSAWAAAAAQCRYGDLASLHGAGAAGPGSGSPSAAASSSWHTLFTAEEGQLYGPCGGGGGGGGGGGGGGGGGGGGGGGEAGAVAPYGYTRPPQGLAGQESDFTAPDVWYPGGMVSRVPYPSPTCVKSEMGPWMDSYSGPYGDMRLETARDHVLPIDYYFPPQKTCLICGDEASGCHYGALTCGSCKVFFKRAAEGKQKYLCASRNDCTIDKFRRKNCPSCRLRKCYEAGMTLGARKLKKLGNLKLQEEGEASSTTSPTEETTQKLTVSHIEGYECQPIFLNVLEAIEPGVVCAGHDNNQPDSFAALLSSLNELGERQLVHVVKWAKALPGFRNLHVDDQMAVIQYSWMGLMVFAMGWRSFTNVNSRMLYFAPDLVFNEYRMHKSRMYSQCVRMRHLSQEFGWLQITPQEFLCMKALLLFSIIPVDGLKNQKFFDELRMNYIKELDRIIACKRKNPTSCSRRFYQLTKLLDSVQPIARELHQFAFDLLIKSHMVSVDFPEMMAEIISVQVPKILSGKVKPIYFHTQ
# Test: Androgen-induced PSA-luciferase assay, Luciferase Assay B (cells stably expressing ARR2PB or PSA-firefly luciferase reporter, 384-well)
# Type: cell-based
# Conditions: Luciferase Assay B (Compounds A186-A219 and A221-A245); stable luciferase reporter cells, 1 h pretreatment, R1881 24 h, serum-free; read-out: PSA-Luc IC50 Range
# Procedure: Luciferase Assay B: Cells stably expressing probasin promoter (ARR2PB) or human prostate-specific antigen (PSA)-firefly luciferase reporter were plated in poly-D-lysine-coated 384-well plates. 48 h after plating, cells were pretreated with vehicle or compounds for 1 h before adding R1881 under serum-free and phenol red-free conditions and then further incubated for 24 h. R1881 was added only for LNCaP cells. Firefly luciferase activities were determined by EnVision plate reader (Perkinemer) using the Steady-Glo Luciferase Reporter Assay System (Promega). Values were normalized to protein content. GraphPad Prism graphing software was used to calculate IC50 values. Luciferase Assay B was run for Compounds A186-A219 and A221-A245 in Table 2.
# Statistical analyses were performed using GraphPad Prism (Version 6.01 for Windows; La Jolla, CA, USA). Comparisons between treatment and control groups were compared using Two-Way ANOVA with post-hoc Dunnett's and Tukey's tests. Differences were considered statistically significant at P values less than 0.05.
row,SMILES,IC50 [nM]
1,CS(=O)(=O)Nc1nccc(N2CCN(c3ccc(Oc4cc(Cl)c(OC5CC5)c(C#N)c4)cc3)CC2)n1 [Compound A230],< 500
2,CS(=O)(=O)Nc1cnc2cc(-c3ccc(N(CC(F)(F)F)c4cnc(N5CCOCC5)c(C#N)c4)cc3)ccc2n1 [Compound A233],500 to 2000
3,CS(=O)(=O)Nc1cc2cnn(Cc3ccc(Oc4cc(Cl)c(OC5CC5)c(C#N)c4)cc3)c2cn1 [Compound A225],500 to 2000
4,N#Cc1cc(Oc2ccc(-c3ccc4nc(N5CCOCC5)cnc4c3)cc2)cc(Cl)c1OC1CC1 [Compound A204],> 2000
5,CCCOc1c(Cl)cc(Oc2ccc(-c3ccc4nc(NS(C)(=O)=O)cnc4c3)cc2)cc1C#N [Compound A188],500 to 2000
6,CS(=O)(=O)Nc1ccc2nc(-c3ccc(Oc4cc(Cl)c(OC5CC5)c(C#N)c4)cc3)cnc2n1 [Compound A219],500 to 2000
7,CS(=O)(=O)Nc1cnc2cc(-c3ccc(Oc4cnc(OC5CC5)c(Cl)c4)cc3)ccc2n1 [Compound A218],500 to 2000
8,CS(=O)(=O)Nc1cnc2cc(-c3ccc(Oc4cc(Cl)c(OCCC(F)(F)F)c(C#N)c4)cc3)ccc2n1 [Compound A189],500 to 2000
9,N#Cc1cc(Oc2ccc(-c3ccc4nc(N5CCNCC5)cnc4c3)cc2)cc(Cl)c1OC1CC1 [Compound A240],> 2000
10,"CC(C)(c1ccc(OCc2ccnc(N3CCOCC3)n2)cc1)c1cc(Cl)c(OC2CC2)c(C#N)c1 [Compound A201, 3-chloro-2-cyclopropoxy-5-(2-(4-((2-morpholinopyrimidin-4-yl)methoxy)phenyl)propan-2-yl)benzonitrile]",500 to 2000
11,CS(=O)(=O)NCc1cnc(-c2ccc(Oc3cc(Cl)c(OC4CC4)c(C#N)c3)cc2)cn1 [Compound A213],500 to 2000
12,N#Cc1cc(Oc2ccc(-c3ccc4nc(NC5CCS(=O)(=O)CC5)cnc4c3)cc2)cc(Cl)c1OC1CC1 [Compound A215],500 to 2000
13,"CS(=O)(=O)NC12CC(COc3ccc(Oc4cc(Cl)c(OC5CC5)c(C#N)c4)cc3)(C1)C2 [Compound A228, N-(3-((4-(3-chloro-5-cyano-4-cyclopropoxyphenoxy)phenoxy)methyl)bicyclo[1.1.1]pentan-1-yl)methanesulfonamide]",> 2000
14,"CS(=O)(=O)NC12CC(COc3ccc(N(CC(F)(F)F)c4cc(Cl)c(OC5CC5)c(C#N)c4)cc3)(C1)C2 [Compound A236, N-(3-((4-((3-chloro-5-cyano-4-cyclopropoxyphenyl)(2,2,2-trifluoroethyl)amino)phenoxy)methyl)bicyclo[1.1.1]pentan-1-yl)methanesulfonamide]",< 500
15,CS(=O)(=O)Nc1cc(=O)n2cc(-c3ccc(Oc4cc(Cl)c(OC5CC5)c(C#N)c4)cc3)ccc2n1 [Compound A211],> 2000
16,N#Cc1cc(Oc2ccc(-c3ccc4nc(N)cnc4c3)cc2)cc(Cl)c1OC1CC1 [Compound A194],> 2000
17,CC(C)(c1ccc(-c2cnc(NS(C)(=O)=O)nc2)cc1)c1cc(Cl)c(OC2CC2)c(C#N)c1 [Compound A197],500 to 2000
18,CS(=O)(=O)Nc1cnc2cc(-c3ccc(Nc4cc(Cl)c(OC5CC5)c(C#N)c4)cc3)ccc2n1 [Compound A226],500 to 2000

row,SMILES,IC50 [nM]
1,CS(=O)(=O)NCc1nccc(COc2ccc(N(CC(F)(F)F)c3cc(Cl)c(OC4CC4)c(C#N)c3)cc2)n1 [Compound A221],< 500
2,CS(=O)(=O)Nc1cnc2ccc(-c3ccc(Oc4cc(Cl)c(OC5CC5)c(C#N)c4)cc3)cc2n1 [Compound A193],500 to 2000
3,CS(=O)(=O)NCc1ccc(-c2ccc(Oc3cc(Cl)c(OC4CC4)c(C#N)c3)cc2)nn1 [Compound A214],500 to 2000
4,CS(=O)(=O)Nc1nccc(COc2ccc(N(CC(F)(F)F)c3cc(Cl)c(OCCCl)c(C#N)c3)cc2)n1 [Compound A238],< 500
5,CS(=O)(=O)Nc1cnc2cc(-c3ccc(N(CC(F)F)c4cc(Cl)c(OC5CC5)c(C#N)c4)cc3)ccc2n1 [Compound A222],< 500
6,CN(c1ccc(OCc2ccnc(NS(C)(=O)=O)n2)cc1)c1cc(Cl)c(OC2CC2)c(C#N)c1 [Compound A237],500 to 2000
7,CNc1cnc2cc(-c3ccc(Oc4cc(Cl)c(OC5CC5)c(C#N)c4)cc3)ccc2n1 [Compound A200],> 2000
8,CC(=O)N1CCN(c2nccc(COc3ccc(C(C)(C)c4cc(Cl)c(OC5CC5)c(C#N)c4)cc3)n2)CC1 [Compound A244],< 500
9,CS(=O)(=O)NC12CC(COc3ccc(N(CC(F)(F)F)c4cnc(OC5CC5)c(C#N)c4)cc3)(C1)C2 [Compound A234],500 to 2000
10,Cn1nc(NS(C)(=O)=O)c2cc(-c3ccc(Oc4cc(Cl)c(OC5CC5)c(C#N)c4)cc3)ccc21 [Compound A210],500 to 2000
11,"CS(=O)(=O)NCc1cnc2cc(-c3ccc(Oc4cc(Cl)c(OC5CC5)c(C#N)c4)cc3)ccc2n1 [Compound A207, N-((6-(4-(3-chloro-5-cyano-4-cyclopropoxyphenoxy)phenyl)quinoxalin-2-yl)methyl)methanesulfonamide]",500 to 2000
12,CS(=O)(=O)Nc1cc2ccc(-c3ccc(Oc4cc(Cl)c(OC5CC5)c(C#N)c4)cc3)cc2nn1 [Compound A192],< 500
13,CS(=O)(=O)NCc1ccc(-c2ccc(Oc3cc(Cl)c(OC4CC4)c(C#N)c3)cc2)cn1 [Compound A212],500 to 2000
14,CN(c1cnc2cc(-c3ccc(Oc4cc(Cl)c(OC5CC5)c(C#N)c4)cc3)ccc2n1)S(C)(=O)=O [Compound A195],500 to 2000
15,CS(=O)(=O)Nc1cc2cn(Cc3ccc(Oc4cc(Cl)c(OC5CC5)c(C#N)c4)cc3)nc2cn1 [Compound A227],500 to 2000
16,N#Cc1cc(Oc2ccc(-c3ccc4nc(NC5CS(=O)(=O)C5)cnc4c3)cc2)cc(Cl)c1OC1CC1 [Compound A216],> 2000
17,N#Cc1cc(Oc2ccc(-c3ccc4nc(N5CCS(=O)(=O)CC5)cnc4c3)cc2)cc(Cl)c1OC1CC1 [Compound A206],500 to 2000

# Test system: not listed separately
# Test: Microsomal stability assay, liver microsome half-life (human)
# Type: in vitro ADME
# Conditions: pH 7.4; human liver microsomes 0.5 mg/mL + NADPH, 1 μM compound, 37° C; read-out: Liver microsome + NADPH T½ (min) Human
# Source text: Microsomal Stability Assay: Microsomal stability assay is a widely used in vitro model to characterize the metabolic conversion by phase I enzymes, such as cytochrome P450 (CYP) enzymes. Since metabolism is known to be highly variable in different species, microsomal stability assay is commonly run in multiple species. Metabolic stability of testing compound can be evaluated using human, rat, mouse, or other animal liver or intestine microsomes to predict intrinsic clearance.
# The assay was carried out in 96-well microtiter plates at 37° C. Reaction mixtures (25 μL) contained a final concentration of 1 μM test compound, 0.5 mg/mL liver microsomes protein, and 1 mM NADPH and/or 1 mM UDPGA (with alamethicin) in 100 mM potassium phosphate, pH 7.4 buffer with 3 mM MgCl2. The incubation was done with N=1, but duplicate incubation at each time point can be prepared if necessary. At each of the time points (for example, 0, 15, 30, and 60 minutes), 150 μL of quench solution (100% acetonitrile with 0.1% formic acid) with internal standard was transferred to each well. Besides the zero minute controls, mixtures containing the same components except the NADPH can also be prepared as the negative control. Verapamil was included as a positive control to verify assay performance. Plates were sealed, vortexed, and centrifuged at 4° C. for 15 minutes at 4000 rpm. The supernatant is transferred to fresh plates for LC/MS/MS analysis.
# Summarized conditions: [Compound]=1 μM, [LM]=0.5 mg/mL, [NADPH]=1 mM and/or [UDPGA]=1 mM, Buffer=100 mM Potassium Phosphate, pH 7.4 with 3 mM MgCl2, Time=0, 15, 30, and 60 min, and Temperature=37° C.
# All samples were analyzed on LC/MS/MS using an AB Sciex API 4000 instrument, coupled to a Shimadzu LC-20AD LC Pump system. Analytical samples were separated using a Waters Atlantis T3 dC18 reverse phase HPLC column (20 mm×2.1 mm) at a flow rate of 0.5 mL/min. The mobile phase consisted of 0.1% formic acid in water (solvent A) and 0.1% formic acid in 100% acetonitrile (solvent B).
# The extent of metabolism is calculated as the disappearance of the test compound, compared to the 0-min time incubation. Initial rates are calculated for the compound concentration and used to determine half-life (t1/2).
row,SMILES,half-life at 1 μM [min]
1,"CC(C)(c1ccc(OC[C@H](O)CNS(C)(=O)=O)cc1)c1cc(Cl)c(OC[C@H](O)CCl)c(Cl)c1 [X, reference compound]",> 120
